# From PubChem BioAssay (NCI)
# Where “and” joins values, the source holds several entries; their conditions need not be identical. Equal values may be shown once.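 These data come from cells grown in 96-well plates and exposed to compound for 48 hours at five concentrations. Here, GI50 denotes the concentration required for 50% inhibition of growth. TGI is the concentration that stops growth completely.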
# Tested on: HL-60(TB) leukemia
# Experiment: NCI tumour cell line growth inhibition, 48 h
row,SMILES,TGI [µM]
1,O=C1c2ccccc2C(=O)C1(Cl)C1(S(=O)(=O)O)c2ccccc2-c2ccccc21,> 100

# Tested on: HT29 colon
# Experiment: NCI tumour cell line growth inhibition, 48 h
SMILES,GI50 [µM],TGI
O=S(=O)([O-])c1ccc2c(c1)-c1nc-2nc2[n-]c(nc3nc(nc4[n-]c(n1)c1ccc(S(=O)(=O)[O-])cc41)-c1cc(S(=O)(=O)[O-])ccc1-3)c1ccc(S(=O)(=O)[O-])cc21.[Cu+2].[Na+],3.32,> 100 µM
CC(C)c1ccc(Nc2ccc3c(OCCCN4CCN(C)CC4)cccc3n2)cc1,2.16,4.92 µM
CCCCOC(=O)C1C(c2ccc(Cl)cc2)NC(c2ccc(Cl)cc2)C(C(=O)OCCCC)S1(=O)=O (centres undefined),–,> 100 µM
Cc1cc(Br)cc(C)c1NC(=O)C(=O)C(C(=O)c1ccc2ccccc2c1)C1OC(=O)c2ccccc21 (centres undefined),–,41.7 µM
CC(=O)Nc1ccc(C(=O)NN2C(=O)C(Cl)C2c2ccccc2)cc1 (centres undefined),–,> 100 µM
COc1ccc2c(c1)C(C)Cc1c(Cl)ncnc1N2C (centres undefined),0.33,8.13 µM
C#Cc1cccc(Nc2ncnc3cc(OC)c(OCCCCCCC(=O)NO)cc23)c1,0.253,5.33 µM
Cc1ccc(SC(C)/C=C/NNC2=NC(c3ccccc3)C(c3ccccc3)=NN2)cc1 (centres undefined),–,27.3 µM
Cc1nnc(S(=O)(=O)c2ccc(N=Nc3c(N)nc(N)nc3N)cc2)s1,–,> 100 µM
O=c1n(CC2CO2)c(=O)n(CC2CO2)c(=O)n1CC1CO1 (centres undefined),24.4,62.3 µM and > 100 µM
Cc1ccc(C(SCC(N)C(=O)O)(c2ccccc2)c2ccc(C)cc2)cc1 (centres undefined),0.334,3.38 µM
COc1cc(Nc2cn[nH]c2-c2ccc(Cl)cc2)cc(OC)c1OC,3.24,14.3 µM
CNCCNc1c2c(c(NCCNC)c3c(CN(C)C)c[nH]c13)C(=O)c1ccccc1C2=O,3.41,31.6 µM
O=C1NC(=Nc2ccccc2)S/C1=C\c1ccc2ncccc2c1,> 25,> 25 µM
C/C1=C\CC[C@@]2(C)O[C@@H]2[C@H]2OC(=O)[C@@H](CN(C)C)[C@@H]2CC1,19.9,61.4 µM
Oc1ccc(Cl)cc1Cc1cc(Cl)cc(Cl)c1O,19.8,43.9 µM
C=C(C=O)C1CCC2(C(=O)O)CCC3(C)C(CCC4C5(C)CCC(O)C(C)(C)C5CCC43C)C12 (centres undefined),2.65,7.39 µM
COc1ccc(N2C(=O)C(c3ccccc3)(c3ccccc3)C23C(=O)N(C)c2ccccc23)cc1 (centres undefined),> 100,> 100 µM
COc1ccc(C2S/C(=C\c3ccccc3O)C(=O)N2NC(=O)Cc2ccccc2)cc1 (centres undefined),–,> 100 µM
Cc1ccc(S(=O)(=O)NCC2CCCCC2=O)cc1 (centres undefined),–,> 100 µM
CNC(=S)NC1CCCCC1NC(=S)NC (centres undefined),–,> 100 µM
CC1OC(n2cc(F)c(=O)[nH]c2=O)C=CC1O (centres undefined),–,> 100 µM
C=C(C=O)[C@@H]1C2OC(=O)C(=C)[C@@H]2CC(O)[C@@]1(C)CC (some centres undefined),–,21.5 µM
C=C(CCCCC)CN1CCCC1[C@@](C)(O)CC(=O)OCC (some centres undefined),–,> 100 µM
NC(=NCCCOc1ccc(Cl)cc1)Nc1ccc(C(F)(F)F)cc1,1.88,5.55 µM
O=C1c2ccccc2C(=O)C1(Cl)C1(S(=O)(=O)O)c2ccccc2-c2ccccc21,–,> 100 µM

# Tested on: OVCAR-5 ovarian
# Experiment: NCI tumour cell line growth inhibition, 48 h
SMILES,GI50,TGI
O=S(=O)([O-])c1ccc2c(c1)-c1nc-2nc2[n-]c(nc3nc(nc4[n-]c(n1)c1ccc(S(=O)(=O)[O-])cc41)-c1cc(S(=O)(=O)[O-])ccc1-3)c1ccc(S(=O)(=O)[O-])cc21.[Cu+2].[Na+],> 100 µM,> 100 µM
CC(C)c1ccc(Nc2ccc3c(OCCCN4CCN(C)CC4)cccc3n2)cc1,15.6 µM,31.2 µM
CCCCOC(=O)C1C(c2ccc(Cl)cc2)NC(c2ccc(Cl)cc2)C(C(=O)OCCCC)S1(=O)=O (centres undefined),–,> 100 µM
Cc1cc(Br)cc(C)c1NC(=O)C(=O)C(C(=O)c1ccc2ccccc2c1)C1OC(=O)c2ccccc21 (centres undefined),–,19.7 µM
CC(=O)Nc1ccc(C(=O)NN2C(=O)C(Cl)C2c2ccccc2)cc1 (centres undefined),–,> 100 µM
COc1ccc2c(c1)C(C)Cc1c(Cl)ncnc1N2C (centres undefined),0.643 µM,> 100 µM
C#Cc1cccc(Nc2ncnc3cc(OC)c(OCCCCCCC(=O)NO)cc23)c1,0.121 µM,3 µM
Cc1ccc(SC(C)/C=C/NNC2=NC(c3ccccc3)C(c3ccccc3)=NN2)cc1 (centres undefined),–,89.1 µM
Cc1nnc(S(=O)(=O)c2ccc(N=Nc3c(N)nc(N)nc3N)cc2)s1,–,> 100 µM
O=c1n(CC2CO2)c(=O)n(CC2CO2)c(=O)n1CC1CO1 (centres undefined),18.2 µM and 19.9 µM,56 µM and 118 µM and 40.1 µM
Cc1ccc(C(SCC(N)C(=O)O)(c2ccccc2)c2ccc(C)cc2)cc1 (centres undefined),1.11 µM,24.4 µM
COc1cc(Nc2cn[nH]c2-c2ccc(Cl)cc2)cc(OC)c1OC,15.9 µM,> 77.1 µM
CNCCNc1c2c(c(NCCNC)c3c(CN(C)C)c[nH]c13)C(=O)c1ccccc1C2=O,2.95 µM,13.9 µM
O=C1NC(=Nc2ccccc2)S/C1=C\c1ccc2ncccc2c1,> 25 µM,> 25 µM
C/C1=C\CC[C@@]2(C)O[C@@H]2[C@H]2OC(=O)[C@@H](CN(C)C)[C@@H]2CC1,18.6 µM,37.1 µM
Oc1ccc(Cl)cc1Cc1cc(Cl)cc(Cl)c1O,11.3 µM,26.6 µM
C=C(C=O)C1CCC2(C(=O)O)CCC3(C)C(CCC4C5(C)CCC(O)C(C)(C)C5CCC43C)C12 (centres undefined),2.99 µM,6.82 µM
COc1ccc(N2C(=O)C(c3ccccc3)(c3ccccc3)C23C(=O)N(C)c2ccccc23)cc1 (centres undefined),> 100 µM,> 100 µM
COc1ccc(C2S/C(=C\c3ccccc3O)C(=O)N2NC(=O)Cc2ccccc2)cc1 (centres undefined),–,> 100 µM
Cc1ccc(S(=O)(=O)NCC2CCCCC2=O)cc1 (centres undefined),–,> 100 µM
CNC(=S)NC1CCCCC1NC(=S)NC (centres undefined),–,> 100 µM
CC1OC(n2cc(F)c(=O)[nH]c2=O)C=CC1O (centres undefined),–,> 100 µM
C=C(C=O)[C@@H]1C2OC(=O)C(=C)[C@@H]2CC(O)[C@@]1(C)CC (some centres undefined),–,32 µM
C=C(CCCCC)CN1CCCC1[C@@](C)(O)CC(=O)OCC (some centres undefined),–,> 100 µM
NC(=NCCCOc1ccc(Cl)cc1)Nc1ccc(C(F)(F)F)cc1,2.67 µM,13.7 µM
O=C1c2ccccc2C(=O)C1(Cl)C1(S(=O)(=O)O)c2ccccc2-c2ccccc21,–,> 100 µM

# Tested on: K-562 leukemia
# Experiment: NCI tumour cell line growth inhibition, 48 h
SMILES,GI50,TGI
O=S(=O)([O-])c1ccc2c(c1)-c1nc-2nc2[n-]c(nc3nc(nc4[n-]c(n1)c1ccc(S(=O)(=O)[O-])cc41)-c1cc(S(=O)(=O)[O-])ccc1-3)c1ccc(S(=O)(=O)[O-])cc21.[Cu+2].[Na+],0.749 µM,> 50.3 µM
CC(C)c1ccc(Nc2ccc3c(OCCCN4CCN(C)CC4)cccc3n2)cc1,2.05 µM,4.48 µM
CCCCOC(=O)C1C(c2ccc(Cl)cc2)NC(c2ccc(Cl)cc2)C(C(=O)OCCCC)S1(=O)=O (centres undefined),–,> 100 µM
Cc1cc(Br)cc(C)c1NC(=O)C(=O)C(C(=O)c1ccc2ccccc2c1)C1OC(=O)c2ccccc21 (centres undefined),–,> 72.9 µM
CC(=O)Nc1ccc(C(=O)NN2C(=O)C(Cl)C2c2ccccc2)cc1 (centres undefined),–,> 100 µM
COc1ccc2c(c1)C(C)Cc1c(Cl)ncnc1N2C (centres undefined),2.08 µM,> 100 µM
C#Cc1cccc(Nc2ncnc3cc(OC)c(OCCCCCCC(=O)NO)cc23)c1,0.0817 µM,–
Cc1ccc(SC(C)/C=C/NNC2=NC(c3ccccc3)C(c3ccccc3)=NN2)cc1 (centres undefined),–,> 100 µM
Cc1nnc(S(=O)(=O)c2ccc(N=Nc3c(N)nc(N)nc3N)cc2)s1,–,> 100 µM
O=c1n(CC2CO2)c(=O)n(CC2CO2)c(=O)n1CC1CO1 (centres undefined),40.3 µM and 26.5 µM,308 µM and > 100 µM
Cc1ccc(C(SCC(N)C(=O)O)(c2ccccc2)c2ccc(C)cc2)cc1 (centres undefined),0.266 µM,> 35.2 µM
COc1cc(Nc2cn[nH]c2-c2ccc(Cl)cc2)cc(OC)c1OC,2.49 µM,97.2 µM
